# Results published in patent publication US20030073629A1, “Omi and domains thereof that disrupt IAP-caspase interaction” (priority 2001, published 2003).
# Where a SMILES comes first, the peptide text is derived from it. The star is where a group is joined. Cbz = O=C(OCc1ccccc1)*; CH2F = FC*
# Key:
# Jurkat and HL-60 cells = assay: Release of Omi, Smac and cytochrome c to the cytosol and procaspase-3 processing (immunoblot of cytosolic extracts); format: cell-based, human; conditions: staurosporine 2 μM
# Procedure: FIG. 13 is a scanned image of a blot representing cytosolic extracts from human Jurkat and HL-60 cells bound to GST-BIR3 and immunoblotted with Omi (top panels), Smac (second panels), Cytochrome c (third panels), or caspase-3 (lower panels) antibodies.
# FIG. 14 is a scanned image of a blot representing cytosolic extracts of Jurkat cells treated with TRAIL (1 μg/ml) for the indicated time periods and analyzed by immunoblotting with Omi (top panel), Smac (middle panel), or cytochrome c (bottom panel) antibodies.
# To determine whether Omi is released together with Smac and cytochrome c from the mitochondria to the cytoplasm during apoptosis, we treated Jurkat and HL-60 cells with staurosporine (2 μM), which is known to induce the mitochondrial apoptotic pathway, and analyzed their cytosolic extracts by immunoblot analysis. […] Processing of procaspase-3 also followed a similar time course with maximum processing observed at 6-8 hours after treatment. Very little or no Omi or Smac proteins or processing of procaspase-3 were detected in the extracts at zero-time points.
# Hela cells = assay: Immunofluorescence confocal microscopy of Omi in Hela cells; format: cell-based, human; conditions: staurosporine 1 μM, 5 hours; untreated cells mostly punctate and perinuclear
# XIAP-BIR3 = target: T1, XIAP-BIR3 (Homo sapiens, UniProt P98170); assay: GST-BIR3 precipitation of extracts of transfected 293T cells; format: binding; conditions: 24 hours after transfection
# T1 construct: Omi associates directly with the BIR3 domain of XIAP
# Procedure: FIG. 24 is a scanned image of an immunoblot with Flag-HRP antibody of 293T cells extracts precipitated with GST-BIR3 24 hours after transfection with the indicated expression constructs extracts.
# (§1) Next, the contribution of the IAP binding activity of Omi to its proapoptotic activity was tested. The MTS of Omi was replaced with a GFP-IETD sequence and mutated at its active site Ser306 to Ala (FIG. 20, GFP-IETD-AVP). Of note, the presence of the IETD sequence between GFP and Omi-S/A allowed caspase-dependent cleavage at the IETD site after the Asp residue and release of mature Omi-S/A in the cytosol of the transfected 293 and MCF-7 cells (FIG. 23). […] Taken together, Omi not only can induce apoptosis through its serine protease activity but also via its ability to bind and neutralize IAPs.
# MCF-7 cells = assay: Apoptosis of MCF-7 cells transfected with cytosolic Omi-GFP fusion proteins; format: cell-based; conditions: zVAD-FMK 20 μM; MCF-7 cells transfected with M-Omi-GFP
# Procedure: FIG. 20 provides schematic diagrams of the Omi-GFP and GFP-IETD-Omi constructs used to assay the ability of Omi to induce apoptosis or to enhance apoptosis by other stimuli.
# FIG. 21 is a bar graphic representation of the percentages of GFP-positive apoptotic MCF-7 cells 36 hours following transfection with M-Omi-S/A-GFP or pEGFP-N1 alone or M-Omi-GFP together with empty vector or expression construct encoding XIAP, XIAP-BIR3, or caspase-9DN. The cells were also transfected with M-Omi-GFP expression construct in the presence of zVAD-FMK (20 μM).
# 293 and MCF-7 cells = assay: Caspase-dependent processing of GFP-IETD-Omi at the IETD site in transfected cells (immunoblot); format: cell-based; conditions: cytosolic extracts, zVAD-FMK 20 μM
# Procedure: FIG. 23 is a scanned image of an immunoblot with Flag-HRP antibody of MCF-7 and 293T cells 24 hours following transfected with pEGFP or M-Omi-Flag, GFP-IETD-AVP (AVP) or GFP-IETD-SSA (SSA) expression constructs in the presence or absence of zVAD-FMK (20μM). M-Omi-Flag is similar to the M-Omi-GFP shown in FIG. 20, except that the GFP tag was replaced with a Flag tag.
# as §1
# T1 sequence (P98170 238-358 limits assumed): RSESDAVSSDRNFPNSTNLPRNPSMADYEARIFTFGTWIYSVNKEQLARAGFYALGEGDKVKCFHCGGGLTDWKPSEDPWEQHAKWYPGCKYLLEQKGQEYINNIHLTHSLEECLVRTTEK
compound,measurement,setting,value
CN[C@@H]1C[C@H]2O[C@@](C)([C@@H]1OC)n1c3ccccc3c3c4c(c5c6ccccc6n2c5c31)C(=O)NC4 [staurosporine],"accumulation of cytochrome c, Smac and Omi in the cytosol",Jurkat and HL-60 cells,accumulated in the cytosol of these cells in a time dependent manner
same,time of maximum processing of procaspase-3 after treatment,Jurkat and HL-60 cells,6 to 8 h
same,immunofluorescence staining pattern of Omi,Hela cells,showed diffused immunofluorescence staining of Omi
mature Omi-S/A: mature Omi-S/A released in the cytosol by caspase-dependent cleavage of GFP-IETD-AVP at the IETD site,binding to XIAP-BIR3 (GST-BIR3),XIAP-BIR3,able to bind the GST-BIR3 fusion protein
"COC(=O)C[C@H](NC(=O)[C@H](C)NC(=O)[C@@H](NC(=O)OCc1ccccc1)C(C)C)C(=O)CF [zVAD-FMK, reference compound] (Cbz-Val-Ala-Asp(OMe)-CH2F)",block of M-Omi-GFP-induced apoptosis,MCF-7 cells,did not block the ability of M-Omi-GFP to induce apoptosis
same,processing at the IETD site,293 and MCF-7 cells,very little or no processing at the IETD site was observed
